Laboratory results: patent US20250333371A1, “COMPOUNDS” (PSYLO PTY LTD, priority 2022, published 2025)

What follows are compounds tested against T1, 5-HT2A (Homo sapiens, UniProt P28223) (assay: FLIPR Ca2+ flux functional assay, 5-HT2A receptor (stably transfected HEK293)). Settings: not given.
T1 construct: host or cells: HEK293
T1 sequence (P28223 whole entry): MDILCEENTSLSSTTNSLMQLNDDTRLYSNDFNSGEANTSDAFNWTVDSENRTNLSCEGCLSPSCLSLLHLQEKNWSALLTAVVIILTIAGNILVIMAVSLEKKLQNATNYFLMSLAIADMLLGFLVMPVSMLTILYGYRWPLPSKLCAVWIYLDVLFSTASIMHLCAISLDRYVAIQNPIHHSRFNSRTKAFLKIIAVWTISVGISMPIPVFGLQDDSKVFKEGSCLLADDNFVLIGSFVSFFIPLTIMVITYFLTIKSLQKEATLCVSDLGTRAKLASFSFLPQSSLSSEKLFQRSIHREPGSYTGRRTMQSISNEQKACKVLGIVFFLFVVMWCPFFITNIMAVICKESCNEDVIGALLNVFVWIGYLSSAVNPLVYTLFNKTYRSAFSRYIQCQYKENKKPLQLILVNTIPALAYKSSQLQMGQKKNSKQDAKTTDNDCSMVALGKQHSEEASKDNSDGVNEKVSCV
Format: cell-based
Experimental: (§1) Activity at 5-HT2A, 5-HT2B and 5-HT2C receptors was determined using a FLIPR Ca^2+ flux assay at WuXi AppTec Co. Ltd. (Hong Kong) Discovery Biology Unit according to their standard protocols. Briefly, stably transfected cells expressing the receptor of interest (HEK293 for 5-HT2A and 5-HT2C; CHO-K1 for 5-HT2B) were grown and plated in a 384 well plate and incubated at 37° C. and 5% CO2 overnight. A 250 mM stock solution of probenecid in FLIPR calcium assay buffer (10 mL) was freshly prepared and combined with a fluorescent dye (Fluo-4 Direct) to give a final assay concentration of 2.5 mM. Reference compounds were 4-fold serially diluted and the screening compounds were 3-fold serially diluted in 100% DMSO for 10 points using Agilent Bravo, and 750 nL was added to a 384 well compound plate using Echo along with 30 μL assay buffer. The fluorescent dye was then added to the assay plate along with assay buffer to a final volume of 40 μL. The cell plate was incubated for 50 min at 37° C. and 5% CO2 and placed into the FLIPR Tetra along with the compound plate. 10 μL of references and compounds were then transferred from the compound plate into the cell plate and the fluorescent signal was read.
Compound COc1cccc2c(CCN)cccc12 [Example I-52, 2-(5-methoxynaphthalen-1-yl)ethan-1-amine] has an EC50 of 0.295 µM.
CN(C)CCc1cccc2ccc(F)cc12 [Example I-38, 2-(7-fluoronaphthalen-1-yl)-N,N-dimethylethan-1-amine] showed an EC50 of 0.245 µM.
Compound CCCN(C)CCc1cccc2cccc(OC)c12 [Example I-27, N-(2-(8-methoxynaphthalen-1-yl)ethyl)-N-methylpropan-1-amine] has an EC50 of 0.213 µM.
In the case of COc1cccc2cccc(CCN(C)C(C)C)c12 [Example I-28, N-(2-(8-methoxynaphthalen-1-yl)ethyl)-N-methylpropan-2-amine], the EC50 is reported as 0.191 µM.
For CCN(CC)CCc1cccc2cccc(OC)c12 [Example I-22, N,N-diethyl-2-(8-methoxynaphthalen-1-yl)ethan-1-amine], the EC50 was 0.457 µM.
With CCN(C)CCc1cccc2ccccc12 [Example I-33, N-ethyl-N-methyl-2-(naphthalen-1-yl)ethan-1-amine] the EC50 was 0.204 µM.
For CCN(C)CCc1cccc2cccc(OC)c12 [Example I-25, N-ethyl-2-(8-methoxynaphthalen-1-yl)-N-methylethan-1-amine], the EC50 was 0.158 µM.
Work on CCN(CC)CCc1cccc2ccc(OC)cc12 [Example I-2, N,N-diethyl-2-(7-methoxynaphthalen-1-yl)ethan-1-amine] yielded an EC50 of 0.36 µM.
For CCCN(C)CCc1cccc2ccc(OC)cc12 [Example I-6, N-(2-(7-methoxynaphthalen-1-yl)ethyl)-N-methylpropan-1-amine], the EC50 was 0.125 µM.
Compound CC(C)N(C)CCc1cccc2ccc(F)cc12 [Example I-40, N-(2-(7-fluoronaphthalen-1-yl)ethyl)-N-methylpropan-2-amine] has an EC50 of 0.378 µM.
CN(C)CCc1cccc2ccc(Cl)cc12 [Example I-32, 2-(7-chloronaphthalen-1-yl)-N,N-dimethylethan-1-amine] gave an EC50 of 0.24 µM.
COc1cccc2cccc(CCN(C)C)c12 [Example I-13, 2-(8-methoxynaphthalen-1-yl)-N,N-dimethylethan-1-amine] showed an EC50 of 0.138 µM.
CCN(C)CCc1cccc2ccc(F)cc12 [Example I-39, N-ethyl-2-(7-fluoronaphthalen-1-yl)-N-methylethan-1-amine] showed an EC50 of 0.168 µM.
Work on NCCc1cccc2ccc(F)cc12 [Example I-53, 2-(7-fluoronaphthalen-1-yl)ethan-1-amine] yielded an EC50 of 0.034 µM.

Same assay, conditions: HEK293; @ 10 uM; no EC50 value given; read-out: 5-HT2A Emax (%) printed as % @ 10 uM
With COc1cccc2c(CCN(C)C)cccc12 [Example I-50, 2-(5-methoxynaphthalen-1-yl)-N,N-dimethylethan-1-amine] the Emax at 10 µM was 28%.

Same assay, conditions: agonist activity, Ca2+ flux, HEK293
Work on COc1cccc2c(CCN)cccc12 [Example I-52, 2-(5-methoxynaphthalen-1-yl)ethan-1-amine] yielded an Emax of 79%.
For CN(C)CCc1cccc2ccc(F)cc12 [Example I-38, 2-(7-fluoronaphthalen-1-yl)-N,N-dimethylethan-1-amine], the Emax was 66%.
Work on CCCN(C)CCc1cccc2cccc(OC)c12 [Example I-27, N-(2-(8-methoxynaphthalen-1-yl)ethyl)-N-methylpropan-1-amine] yielded an Emax of 86%.
In the case of COc1cccc2cccc(CCN(C)C(C)C)c12 [Example I-28, N-(2-(8-methoxynaphthalen-1-yl)ethyl)-N-methylpropan-2-amine], the Emax is reported as 94%.
In the case of CCN(CC)CCc1cccc2cccc(OC)c12 [Example I-22, N,N-diethyl-2-(8-methoxynaphthalen-1-yl)ethan-1-amine], the Emax is reported as 85%.
For CCN(C)CCc1cccc2ccccc12 [Example I-33, N-ethyl-N-methyl-2-(naphthalen-1-yl)ethan-1-amine], the Emax was 58%.
CCN(C)CCc1cccc2cccc(OC)c12 [Example I-25, N-ethyl-2-(8-methoxynaphthalen-1-yl)-N-methylethan-1-amine] showed an Emax of 67%.
CCN(CC)CCc1cccc2ccc(OC)cc12 [Example I-2, N,N-diethyl-2-(7-methoxynaphthalen-1-yl)ethan-1-amine] was tested, and the Emax was 70%.
In the case of CCCN(C)CCc1cccc2ccc(OC)cc12 [Example I-6, N-(2-(7-methoxynaphthalen-1-yl)ethyl)-N-methylpropan-1-amine], the Emax is reported as 81%.
Compound CC(C)N(C)CCc1cccc2ccc(F)cc12 [Example I-40, N-(2-(7-fluoronaphthalen-1-yl)ethyl)-N-methylpropan-2-amine] has an Emax of 68%.
In the case of CN(C)CCc1cccc2ccc(Cl)cc12 [Example I-32, 2-(7-chloronaphthalen-1-yl)-N,N-dimethylethan-1-amine], the Emax is reported as 63%.
COc1cccc2cccc(CCN(C)C)c12 [Example I-13, 2-(8-methoxynaphthalen-1-yl)-N,N-dimethylethan-1-amine] gave an Emax of 49%.
In the case of CCN(C)CCc1cccc2ccc(F)cc12 [Example I-39, N-ethyl-2-(7-fluoronaphthalen-1-yl)-N-methylethan-1-amine], the Emax is reported as 58%.
For NCCc1cccc2ccc(F)cc12 [Example I-53, 2-(7-fluoronaphthalen-1-yl)ethan-1-amine], the Emax was 83%.

Each compound was assayed against T2, 5-HT2C (Homo sapiens, UniProt P28335) (assay: FLIPR Ca2+ flux functional assay, 5-HT2C receptor (stably transfected HEK293)). Settings: not given.
T2 construct: host or cells: HEK293
T2 sequence (P28335 33-458): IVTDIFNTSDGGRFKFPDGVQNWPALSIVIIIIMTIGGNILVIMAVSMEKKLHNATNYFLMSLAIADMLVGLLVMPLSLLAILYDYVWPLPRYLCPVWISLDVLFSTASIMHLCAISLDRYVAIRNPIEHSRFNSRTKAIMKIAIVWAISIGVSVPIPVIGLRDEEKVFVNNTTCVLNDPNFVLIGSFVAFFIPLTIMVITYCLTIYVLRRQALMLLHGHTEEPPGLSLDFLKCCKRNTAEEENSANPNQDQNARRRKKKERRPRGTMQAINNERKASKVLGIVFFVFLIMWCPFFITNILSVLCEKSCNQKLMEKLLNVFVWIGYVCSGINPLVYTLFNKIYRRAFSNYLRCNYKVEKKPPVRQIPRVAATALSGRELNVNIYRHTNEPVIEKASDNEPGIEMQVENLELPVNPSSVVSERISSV
Format: cell-based
Experimental: as §1
With COc1cccc2c(CCN)cccc12 [Example I-52, 2-(5-methoxynaphthalen-1-yl)ethan-1-amine] the EC50 was 0.289 µM.
In the case of CN(C)CCc1cccc2ccc(F)cc12 [Example I-38, 2-(7-fluoronaphthalen-1-yl)-N,N-dimethylethan-1-amine], the EC50 is reported as 0.046 µM.
CCCN(C)CCc1cccc2cccc(OC)c12 [Example I-27, N-(2-(8-methoxynaphthalen-1-yl)ethyl)-N-methylpropan-1-amine] showed an EC50 of 0.211 µM.
In the case of COc1cccc2cccc(CCN(C)C(C)C)c12 [Example I-28, N-(2-(8-methoxynaphthalen-1-yl)ethyl)-N-methylpropan-2-amine], the EC50 is reported as 0.766 µM.
Compound CCN(CC)CCc1cccc2cccc(OC)c12 [Example I-22, N,N-diethyl-2-(8-methoxynaphthalen-1-yl)ethan-1-amine] has an EC50 of 0.157 µM.
CCN(C)CCc1cccc2ccccc12 [Example I-33, N-ethyl-N-methyl-2-(naphthalen-1-yl)ethan-1-amine] gave an EC50 of 0.115 µM.
Compound CCN(C)CCc1cccc2cccc(OC)c12 [Example I-25, N-ethyl-2-(8-methoxynaphthalen-1-yl)-N-methylethan-1-amine] has an EC50 of 0.201 µM.
CCN(CC)CCc1cccc2ccc(OC)cc12 [Example I-2, N,N-diethyl-2-(7-methoxynaphthalen-1-yl)ethan-1-amine] was tested, and the EC50 was 0.733 µM.
In the case of CCCN(C)CCc1cccc2ccc(OC)cc12 [Example I-6, N-(2-(7-methoxynaphthalen-1-yl)ethyl)-N-methylpropan-1-amine], the EC50 is reported as 0.079 µM.
Work on CC(C)N(C)CCc1cccc2ccc(F)cc12 [Example I-40, N-(2-(7-fluoronaphthalen-1-yl)ethyl)-N-methylpropan-2-amine] yielded an EC50 of 0.12 µM.
For CN(C)CCc1cccc2ccc(Cl)cc12 [Example I-32, 2-(7-chloronaphthalen-1-yl)-N,N-dimethylethan-1-amine], the EC50 was 0.061 µM.
In the case of COc1cccc2cccc(CCN(C)C)c12 [Example I-13, 2-(8-methoxynaphthalen-1-yl)-N,N-dimethylethan-1-amine], the EC50 is reported as 0.582 µM.
With CCN(C)CCc1cccc2ccc(F)cc12 [Example I-39, N-ethyl-2-(7-fluoronaphthalen-1-yl)-N-methylethan-1-amine] the EC50 was 0.033 µM.
Work on NCCc1cccc2ccc(F)cc12 [Example I-53, 2-(7-fluoronaphthalen-1-yl)ethan-1-amine] yielded an EC50 of 0.001 µM.

Same assay, conditions: agonist activity, Ca2+ flux, HEK293
In the case of COc1cccc2c(CCN)cccc12 [Example I-52, 2-(5-methoxynaphthalen-1-yl)ethan-1-amine], the Emax is reported as 91%.
CN(C)CCc1cccc2ccc(F)cc12 [Example I-38, 2-(7-fluoronaphthalen-1-yl)-N,N-dimethylethan-1-amine] gave an Emax of 83%.
In the case of CCCN(C)CCc1cccc2cccc(OC)c12 [Example I-27, N-(2-(8-methoxynaphthalen-1-yl)ethyl)-N-methylpropan-1-amine], the Emax is reported as 75%.
COc1cccc2cccc(CCN(C)C(C)C)c12 [Example I-28, N-(2-(8-methoxynaphthalen-1-yl)ethyl)-N-methylpropan-2-amine] gave an Emax of 76%.
Compound CCN(CC)CCc1cccc2cccc(OC)c12 [Example I-22, N,N-diethyl-2-(8-methoxynaphthalen-1-yl)ethan-1-amine] has an Emax of 95%.
Work on CCN(C)CCc1cccc2ccccc12 [Example I-33, N-ethyl-N-methyl-2-(naphthalen-1-yl)ethan-1-amine] yielded an Emax of 67%.
CCN(C)CCc1cccc2cccc(OC)c12 [Example I-25, N-ethyl-2-(8-methoxynaphthalen-1-yl)-N-methylethan-1-amine] showed an Emax of 84%.
For CCN(CC)CCc1cccc2ccc(OC)cc12 [Example I-2, N,N-diethyl-2-(7-methoxynaphthalen-1-yl)ethan-1-amine], the Emax was 88%.
CCCN(C)CCc1cccc2ccc(OC)cc12 [Example I-6, N-(2-(7-methoxynaphthalen-1-yl)ethyl)-N-methylpropan-1-amine] was tested, and the Emax was 95%.
With CC(C)N(C)CCc1cccc2ccc(F)cc12 [Example I-40, N-(2-(7-fluoronaphthalen-1-yl)ethyl)-N-methylpropan-2-amine] the Emax was 84%.
CN(C)CCc1cccc2ccc(Cl)cc12 [Example I-32, 2-(7-chloronaphthalen-1-yl)-N,N-dimethylethan-1-amine] showed an Emax of 87%.
With COc1cccc2cccc(CCN(C)C)c12 [Example I-13, 2-(8-methoxynaphthalen-1-yl)-N,N-dimethylethan-1-amine] the Emax was 58%.
CCN(C)CCc1cccc2ccc(F)cc12 [Example I-39, N-ethyl-2-(7-fluoronaphthalen-1-yl)-N-methylethan-1-amine] was tested, and the Emax was 93%.
NCCc1cccc2ccc(F)cc12 [Example I-53, 2-(7-fluoronaphthalen-1-yl)ethan-1-amine] showed an Emax of 97%.

Each compound was assayed against T3, 5-HT2B (Homo sapiens, UniProt P41595) (assay: FLIPR Ca2+ flux functional assay, 5-HT2B receptor (stably transfected CHO-K1)). Settings: not given.
T3 construct: host or cells: CHO-K1
T3 sequence (P41595 whole entry): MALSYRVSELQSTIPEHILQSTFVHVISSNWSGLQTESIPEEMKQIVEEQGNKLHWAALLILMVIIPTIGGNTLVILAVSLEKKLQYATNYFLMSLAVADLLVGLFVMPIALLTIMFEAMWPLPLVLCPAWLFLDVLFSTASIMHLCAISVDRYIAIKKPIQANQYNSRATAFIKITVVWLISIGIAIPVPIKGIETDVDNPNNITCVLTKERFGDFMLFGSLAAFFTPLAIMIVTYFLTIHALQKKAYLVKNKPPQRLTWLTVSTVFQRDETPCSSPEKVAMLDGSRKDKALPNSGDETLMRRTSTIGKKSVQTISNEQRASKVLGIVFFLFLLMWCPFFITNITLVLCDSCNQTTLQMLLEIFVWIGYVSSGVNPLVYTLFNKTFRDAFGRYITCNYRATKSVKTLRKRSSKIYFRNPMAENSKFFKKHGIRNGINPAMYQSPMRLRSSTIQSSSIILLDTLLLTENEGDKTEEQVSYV
Format: cell-based
Experimental: as §1
In the case of CCCN(C)CCc1cccc2cccc(OC)c12 [Example I-27, N-(2-(8-methoxynaphthalen-1-yl)ethyl)-N-methylpropan-1-amine], the EC50 is reported as greater than 10 µM.
COc1cccc2cccc(CCN(C)C(C)C)c12 [Example I-28, N-(2-(8-methoxynaphthalen-1-yl)ethyl)-N-methylpropan-2-amine] showed an EC50 greater than 10 µM.
Work on CCN(CC)CCc1cccc2cccc(OC)c12 [Example I-22, N,N-diethyl-2-(8-methoxynaphthalen-1-yl)ethan-1-amine] yielded an EC50 greater than 10 µM.
CCN(C)CCc1cccc2cccc(OC)c12 [Example I-25, N-ethyl-2-(8-methoxynaphthalen-1-yl)-N-methylethan-1-amine] showed an EC50 greater than 10 µM.
CCN(CC)CCc1cccc2ccc(OC)cc12 [Example I-2, N,N-diethyl-2-(7-methoxynaphthalen-1-yl)ethan-1-amine] gave an EC50 greater than 10 µM.
CCCN(C)CCc1cccc2ccc(OC)cc12 [Example I-6, N-(2-(7-methoxynaphthalen-1-yl)ethyl)-N-methylpropan-1-amine] showed an EC50 greater than 10 µM.
COc1cccc2cccc(CCN(C)C)c12 [Example I-13, 2-(8-methoxynaphthalen-1-yl)-N,N-dimethylethan-1-amine] gave an EC50 greater than 10 µM.

Same assay, conditions: agonist activity, Ca2+ flux, CHO-K1
For CCCN(C)CCc1cccc2cccc(OC)c12 [Example I-27, N-(2-(8-methoxynaphthalen-1-yl)ethyl)-N-methylpropan-1-amine], the Emax was 2%.
In the case of COc1cccc2cccc(CCN(C)C(C)C)c12 [Example I-28, N-(2-(8-methoxynaphthalen-1-yl)ethyl)-N-methylpropan-2-amine], the Emax is reported as 46%.
CCN(CC)CCc1cccc2cccc(OC)c12 [Example I-22, N,N-diethyl-2-(8-methoxynaphthalen-1-yl)ethan-1-amine] showed an Emax of 34%.
CCN(C)CCc1cccc2cccc(OC)c12 [Example I-25, N-ethyl-2-(8-methoxynaphthalen-1-yl)-N-methylethan-1-amine] was tested, and the Emax was 24%.
CCN(CC)CCc1cccc2ccc(OC)cc12 [Example I-2, N,N-diethyl-2-(7-methoxynaphthalen-1-yl)ethan-1-amine] gave an Emax of 12%.
CCCN(C)CCc1cccc2ccc(OC)cc12 [Example I-6, N-(2-(7-methoxynaphthalen-1-yl)ethyl)-N-methylpropan-1-amine] showed an Emax of 24%.
Work on COc1cccc2cccc(CCN(C)C)c12 [Example I-13, 2-(8-methoxynaphthalen-1-yl)-N,N-dimethylethan-1-amine] yielded an Emax of 5%.
